Measured values from patent US20100255580A1, “Differentiation of Human Embryonic Stem Cells” (LIFESCCAN, INC., priority 2007, published 2010).
Read-outs that look alike come from different tables or passages of the source.

Test system: H9 embryonic stem cells
Type: cell-based, human
Conditions: DE treatment in low serum
Protocol: Controls for each group included cells plated on […]-coated dishes and cultured in MEF-conditioned medium or cells plated on MEFs and cultured in ES medium. All groups contained three biological replicates and each biological replicate was repeated on two separate gene chips.
Sample preparation, hybridization, and image analysis were performed according to the Affymetrix Human Genome U133 Plus 2.0 Array. Following normalization and a log transformation, data analysis was performed using OmniViz® software (MA) and […] (VizXLabs, WA). Significant differences in gene expression between the samples were evaluated using analysis of variance and an F-test with adjusted P-value (Benjamini and
Hochberg correction) of ≦b 0.05. Only genes with a present call in at least one group were included in the analysis.

With “Activin A: a member of the TGFβ superfamily; R&D Systems; Group 2 = Activin A (100 ng/ml)” the “mean normalized intensity (log format), gene: DKFZP566K1924 protein” value (on MATRIGEL) was 2.882, the “mean normalized intensity (log format), gene: ESTs (r2006)” value (on MATRIGEL) was 1.5857 and the “mean normalized intensity (log format), gene: ESTs (r2025)” value (on MATRIGEL) was 1.531. The “mean normalized intensity (log format), gene: ESTs (r2032)” value (on MATRIGEL) was 0.1336, the “mean normalized intensity (log format), gene: ESTs (r2038)” value (on MATRIGEL) was 3.262 and the “mean normalized intensity (log format), gene: ESTs (r2134)” value (on MATRIGEL) was −1.3795. The “mean normalized intensity (log format), gene: ESTs (r2148)” value (on MATRIGEL) was 4.454, the “mean normalized intensity (log format), gene: ESTs, Moderately similar to ALU2_HUMAN ALU SUBFAMILY SB SEQUENCE CONTAMINATION WARNING ENTRY (H. sapiens)” value (on MATRIGEL) was 4.241 and the “mean normalized intensity (log format), gene: H. sapiens mRNA for B-HLH DNA binding protein.” value (on MATRIGEL) was 5.43. For the same substance, the “mean normalized intensity (log format), gene: Homo sapiens BCL2-interacting killer (apoptosis-inducing) (BIK), mRNA.” value (on MATRIGEL) was 4.3, the “mean normalized intensity (log format), gene: Homo sapiens Charot-Leyden crystal protein (CLC), mRNA.” value (on MATRIGEL) was 3.301 and the “mean normalized intensity (log format), gene: Homo sapiens HES-related repressor protein 1 HERP1 mRNA, complete cds.” value (on MATRIGEL) was 2.806. The “mean normalized intensity (log format), gene: Homo sapiens HSPC156 protein (HSPC156), mRNA.” value (on MATRIGEL) was 0.7862, the “mean normalized intensity (log format), gene: Homo sapiens KIAA0469 gene product (KIAA0469), mRNA.” value (on MATRIGEL) was 4.031 and the “mean normalized intensity (log format), gene: Homo sapiens PNAS-123 mRNA, complete cds” value (on MATRIGEL) was 1.597. For the same substance, the “mean normalized intensity (log format), gene: Homo sapiens Wilms tumor 1 (WT1), transcript variant D, mRNA.” value (on MATRIGEL) was 2.405, the “mean normalized intensity (log format), gene: Homo sapiens cDNA FLJ11398 fis, clone HEMBA1000637.” value (on MATRIGEL) was 2.5268 and the “mean normalized intensity (log format), gene: Homo sapiens cDNA: FLJ22547 fis, clone HSI00356” value (on MATRIGEL) was 4.294. For the same substance, the “mean normalized intensity (log format), gene: Homo sapiens cadherin 6, type 2, K-cadherin (fetal kidney) (CDH6), mRNA.” value (on MATRIGEL) was 0.8248, the “mean normalized intensity (log format), gene: Homo sapiens chorionic somatomammotropin hormone 2 (CSH2), transcript variant 1, mRNA.” value (on MATRIGEL) was 1.124 and the “mean normalized intensity (log format), gene: Homo sapiens chorionic somatomammotropin hormone 2 (CSH2), transcript variant 4, mRNA.” value (on MATRIGEL) was 0.8122. For the same substance, the “mean normalized intensity (log format), gene: Homo sapiens galanin receptor 1 (GALR1), mRNA.” value (on MATRIGEL) was 2.507, the “mean normalized intensity (log format), gene: Homo sapiens growth hormone 2 (GH2), transcript variant 2, mRNA.” value (on MATRIGEL) was 0.9226 and the “mean normalized intensity (log format), gene: Homo sapiens hypothetical protein FLJ20075 (FLJ20075), mRNA.” value (on MATRIGEL) was −0.3592. For the same substance, the “mean normalized intensity (log format), gene: Homo sapiens mRNA for SCCA2b, complete cds.” value (on MATRIGEL) was 3.329, the “mean normalized intensity (log format), gene: Homo sapiens mRNA; cDNA DKFZp586P1124 (from clone DKFZp586P1124)” value (on MATRIGEL) was 0.4856 and the “mean normalized intensity (log format), gene: Homo sapiens methyl-CpG binding protein MBD2 (MBD2) mRNA, complete cds.” value (on MATRIGEL) was 0.4906. The “mean normalized intensity (log format), gene: Homo sapiens tachykinin, precursor 1 (TAC1), transcript variant beta, mRNA.” value (on MATRIGEL) was 2.773, the “mean normalized intensity (log format), gene: Homo sapiens testis expressed sequence 14 (TEX14), mRNA.” value (on MATRIGEL) was 3.512 and the “mean normalized intensity (log format), gene: Homo sapiens, Similar to LIM homeobox protein 8, clone IMAGE: 4839343, mRNA.” value (on MATRIGEL) was −0.06288. The “mean normalized intensity (log format), gene: Homo sapiens, Similar to cadherin 6, type 2, K-cadherin (fetal kidney), clone MGC: 1470, mRNA, complete cds.” value (on MATRIGEL) was 2.547, the “mean normalized intensity (log format), gene: Homo sapiens, Similar to hypothetical protein FLJ10058, clone MGC: 34305 IMAGE: 5167647, mRNA, complete cds.” value (on MATRIGEL) was 1.698 and the “mean normalized intensity (log format), gene: Homo sapiens, Similar to hypothetical protein FLJ32001, clone MGC: 39559 IMAGE: 4828136, mRNA, complete cds.” value (on MATRIGEL) was 0.5207. The “mean normalized intensity (log format), gene: Homo sapiens, clone IMAGE: 4067166, mRNA” value (on MATRIGEL) was 0.1959, the “mean normalized intensity (log format), gene: Homo sapiens, clone IMAGE: 4828836, mRNA.” value (on MATRIGEL) was 0.9729 and the “mean normalized intensity (log format), gene: Homo sapiens, serine (or cysteine) proteinase inhibitor, clade B (ovalbumin), member 3, clone MGC: 12244, mRNA, complete cds.” value (on MATRIGEL) was 1.969. For the same substance, the “mean normalized intensity (log format), gene: Human mRNA upregulated during camptothecin-induced apoptosis of U937 cells.” value (on MATRIGEL) was 0.4945, the “mean normalized intensity (log format), gene: Human platelet-derived growth factor alpha-receptor (PDGFRA) mRNA, exons 13-16” value (on MATRIGEL) was 2.445 and the “mean normalized intensity (log format), gene: KIAA1151 protein” value (on MATRIGEL) was 0.6425. The “mean normalized intensity (log format), gene: caldesmon 1” value (on MATRIGEL) was 7.092, the “mean normalized intensity (log format), gene: nuclear receptor subfamily 1, group I, member 3” value (on MATRIGEL) was 1.779 and the “mean normalized intensity (log format), gene: paternally expressed 3 (r2033)” value (on MATRIGEL) was 2.876. For the same substance, the “mean normalized intensity (log format), gene: paternally expressed 3 (r2093)” value (on MATRIGEL) was 2.874, the “mean normalized intensity (log format), gene: DKFZP566K1924 protein” value (on MEFS) was 1.391 and the “mean normalized intensity (log format), gene: ESTs (r2006)” value (on MEFS) was −1.3. The “mean normalized intensity (log format), gene: ESTs (r2025)” value (on MEFS) was 1.373, the “mean normalized intensity (log format), gene: ESTs (r2032)” value (on MEFS) was −1.566 and the “mean normalized intensity (log format), gene: ESTs (r2038)” value (on MEFS) was 1.5682. The “mean normalized intensity (log format), gene: ESTs (r2134)” value (on MEFS) was −0.9461, the “mean normalized intensity (log format), gene: ESTs (r2148)” value (on MEFS) was 5.334 and the “mean normalized intensity (log format), gene: ESTs, Moderately similar to ALU2_HUMAN ALU SUBFAMILY SB SEQUENCE CONTAMINATION WARNING ENTRY (H. sapiens)” value (on MEFS) was 3.874. For the same substance, the “mean normalized intensity (log format), gene: H. sapiens mRNA for B-HLH DNA binding protein.” value (on MEFS) was 3.451, the “mean normalized intensity (log format), gene: Homo sapiens BCL2-interacting killer (apoptosis-inducing) (BIK), mRNA.” value (on MEFS) was 3.562 and the “mean normalized intensity (log format), gene: Homo sapiens Charot-Leyden crystal protein (CLC), mRNA.” value (on MEFS) was 2.1096. For the same substance, the “mean normalized intensity (log format), gene: Homo sapiens HES-related repressor protein 1 HERP1 mRNA, complete cds.” value (on MEFS) was 2.406, the “mean normalized intensity (log format), gene: Homo sapiens HSPC156 protein (HSPC156), mRNA.” value (on MEFS) was 1.296 and the “mean normalized intensity (log format), gene: Homo sapiens KIAA0469 gene product (KIAA0469), mRNA.” value (on MEFS) was 2.565. The “mean normalized intensity (log format), gene: Homo sapiens PNAS-123 mRNA, complete cds” value (on MEFS) was 1.847, the “mean normalized intensity (log format), gene: Homo sapiens Wilms tumor 1 (WT1), transcript variant D, mRNA.” value (on MEFS) was −2.435 and the “mean normalized intensity (log format), gene: Homo sapiens cDNA FLJ11398 fis, clone HEMBA1000637.” value (on MEFS) was 1.849. For the same substance, the “mean normalized intensity (log format), gene: Homo sapiens cDNA: FLJ22547 fis, clone HSI00356” value (on MEFS) was 2.095, the “mean normalized intensity (log format), gene: Homo sapiens cadherin 6, type 2, K-cadherin (fetal kidney) (CDH6), mRNA.” value (on MEFS) was −0.8763 and the “mean normalized intensity (log format), gene: Homo sapiens chorionic somatomammotropin hormone 2 (CSH2), transcript variant 1, mRNA.” value (on MEFS) was 2.616. For the same substance, the “mean normalized intensity (log format), gene: Homo sapiens chorionic somatomammotropin hormone 2 (CSH2), transcript variant 4, mRNA.” value (on MEFS) was 2.218, the “mean normalized intensity (log format), gene: Homo sapiens galanin receptor 1 (GALR1), mRNA.” value (on MEFS) was −0.338 and the “mean normalized intensity (log format), gene: Homo sapiens growth hormone 2 (GH2), transcript variant 2, mRNA.” value (on MEFS) was 1.4679. The “mean normalized intensity (log format), gene: Homo sapiens hypothetical protein FLJ20075 (FLJ20075), mRNA.” value (on MEFS) was −0.06528, the “mean normalized intensity (log format), gene: Homo sapiens mRNA for SCCA2b, complete cds.” value (on MEFS) was 0.568 and the “mean normalized intensity (log format), gene: Homo sapiens mRNA; cDNA DKFZp586P1124 (from clone DKFZp586P1124)” value (on MEFS) was −3.094.
